pIC50: −log10 of the molar value. Structures can show the parent of a compound that is named as a salt.
Experiments:
human 5-HT2A receptor = human 5-HT2A receptor (Homo sapiens (Human), UniProt P28223); assay: [125I]DOI radioligand binding assay; conditions: 0.5 nM [125I]DOI, membranes of COS7 cells transfected with human 5-HT2A receptor
Experimental: For the IP accumulation assay (Example 10), HEK293 cells were transfected while for the DOI binding assay (Example 11) COS7 cells were transfected. Several protocols well known in the art can be used to transfect cells. The following protocol is representative of the transfection procedures used herein for COS7 or 293 cells.
On day one, COS-7 cells were plated onto 24 well plates, usually 1×10^5 cells/well or 2×10^5 cells/well, respectively. On day two, the cells were transfected by first mixing 0.25 μg cDNA in 50 μL serum-free DMEM/well and then 2 μl lipofectamine in 50 μL serum-free DMEM/well. The solutions (“transfection media”) were gently mixed and incubated for 15-30 minutes at room temperature. The cells were washed with 0.5 mL PBS and then 400 μL of serum free media was mixed with the transfection media and added to the cells. The cells were then incubated for 3-4 hours at 37° C./5% CO2. Then the transfection media was removed and replaced with 1 mL/well of regular growth media.
Compounds of the invention were tested for their ability to bind to a 5-HT2A receptor clone membrane preparation using a radioligand binding assay. Briefly, COS cells were transiently transfected with a pCMV expression vector containing a human 5-HT2A receptor (for the sequence of the receptor see U.S. Pat. No. 6,541,209, SEQ ID NO:24) as described in Example 9.
COS7 cells transfected with recombinant human 5-HT2A receptors were cultured for 48 hr post transfection, collected, washed with ice-cold phosphate buffered saline, pH7.4 (PBS), and then centrifuged at 48,000×g for 20 min at 4° C. The cell pellet was then resuspended in wash buffer containing 20 mM HEPES pH 7.4 and 0.1 mM EDTA, homogenized on ice using a Brinkman polytron, and recentrifuged at 48,000×g for 20 min. at 4° C. The resultant pellet was then resuspended in 20 mM HEPES, pH 7.4, homogenized on ice, and centrifuged (48,000×g for 20 min at 4° C.). Crude membrane pellets were stored at −80° C. until used for radioligand binding assays.
Radioligand binding assays for human 5-HT2A receptor was conducted using the 5-HT2 agonist [^125]DOI as radioligand. To define nonspecific binding, 10 μM DOI was used for all assays. For competitive binding studies, 0.5 nM [^125]DOI was used and compounds were assayed over a range of 0.01 nM to 10 μM. Assays were conducted in a total volume of 200 μl in 96-well Perkin Elmer GF/C filter plates in assay buffer (50 mM Tris-HCl, pH 7.4, 0.5 mM EDTA, 5 mM MgCl2, and 10 μM pargyline). Assay incubations were performed for 60 min at room temperature and were terminated by rapid filtration under vacuum pressure of the reaction mixture over Whatman GF/C glass fiber filters presoaked in 0.5% PEI using a Brandell cell harvestor. Filters were then washing several times with ice-cold wash buffer (50 mM Tris-HCl, pH 7.4). Plates were then dried at room temperature and counted in a Wallac microBeta scintillation counter.

JC virus = conditions: cited from earlier work

Chain of human 5-HT2A receptor (P28223 whole entry): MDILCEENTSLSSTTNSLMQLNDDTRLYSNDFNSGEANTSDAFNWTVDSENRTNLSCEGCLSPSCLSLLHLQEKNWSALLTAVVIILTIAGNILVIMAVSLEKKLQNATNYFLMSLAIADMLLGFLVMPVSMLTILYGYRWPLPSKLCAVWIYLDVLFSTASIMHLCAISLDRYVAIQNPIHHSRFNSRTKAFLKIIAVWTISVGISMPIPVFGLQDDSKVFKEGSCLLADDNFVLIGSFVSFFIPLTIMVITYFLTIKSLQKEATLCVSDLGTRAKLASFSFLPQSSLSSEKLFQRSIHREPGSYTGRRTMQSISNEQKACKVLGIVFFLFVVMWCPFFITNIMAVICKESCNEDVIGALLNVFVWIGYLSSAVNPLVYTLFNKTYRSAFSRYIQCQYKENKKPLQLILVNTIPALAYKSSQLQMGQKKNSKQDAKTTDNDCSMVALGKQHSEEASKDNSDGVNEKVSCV

SMILES	pIC50 (human 5-HT2A receptor)	JC virus infection of human glial cells (JC virus)
Cn1ncc(Cl)c1-c1cc(NC(=O)c2ccc(F)c(C(F)(F)F)c2)ccc1OCCN [Compound 197, N-[4-(2-amino-ethoxy)-3-(4-chloro-2-methyl-2H-pyrazol-3-yl)-phenyl]-4-fluoro-3-trifluoromethyl-benzamide trifluoroacetate]	9.00	
Cn1nccc1-c1cc(NC(=O)C(=O)c2ccc(F)cc2)ccc1OCCN [Compound 32, N-[4-(2-Amino-ethoxy)-3-(2-methyl-2H-pyrazol-3-yl)-phenyl]-2-(4-fluoro-phenyl)-2-oxo-acetamide]	10.60	
O=C(c1ccc(F)cc1)C1CCN(CCn2c(=O)[nH]c3ccccc3c2=O)CC1 [ketanserin]		inhibited
Cn1nccc1-c1cc(NC(=O)c2ccno2)ccc1OCCN [Compound 106, Isoxazole-5-carboxylic acid [4-(2-amino-ethoxy)-3-(2-methyl-2H-pyrazol-3-yl)-phenyl]-amide]	7.04	
Cn1ncc(Cl)c1-c1cc(NC(=O)c2cc(Br)cs2)ccc1OCCN [Compound 77, 4-bromo-thiophene-2-carboxylic acid [4-(2-amino-ethoxy)-3-(4-chloro-2-methyl-2H-pyrazol-3-yl)-phenyl]-amide trifluoroacetate]	8.92	
Cn1ncc(Cl)c1-c1cc(NC(=O)C2CCC(C(F)(F)F)CC2)ccc1OCCN (stereo not shown) [Compound 303, 4-trifluoromethyl-cyclohexanecarboxylic acid [4-(2-amino-ethoxy)-3-(4-chloro-2-methyl-2H-pyrazol-3-yl)-phenyl]-amide trifluoroacetate]	9.59	
Cc1nc2sccn2c(=O)c1CCN1CCC(=C(c2ccc(F)cc2)c2ccc(F)cc2)CC1 [ritanserin]		inhibited

Source: US8664258B2, “Primary amines and derivatives thereof as modulators of the 5-HT2A serotonin receptor useful for the treatment of disorders related thereto” (Arena Pharmaceuticals, Inc., priority 2006, dated 2014)
